Data taken from US10407445B2, “Hepatitis C virus inhibitors” (ENANTA PHARMACEUTICALS, INC., priority 2013, dated 2019).

Columns and labels:
Format in all cases: cell-based
Details in all cases: Hepatitis C virus
[1] = system: HCV genotype 1a replicon, NS5A Q30H; test: Transient replication assay, GT1a NS5A Q30H
[2] = system: HCV genotype 1a replicon, NS5A H58D; test: Transient replication assay, GT1a NS5A H58D
[3] = system: GT4a-ED43 replicon; test: Stable replicon assay, comparison to daclatasvir, GT4a-ED43
Text: The GT3a-S52 replicon plasmid pSGRlucneo-GT3a-S52-HDVR-(ISH) was synthesized by Genscript. This plasmid encodes a GT3a (strain S52, accession GU814264) bicistronic subgenomic replicon encoding the hRluc-Neo reporter gene in the first cistron and NS3-NS5B, driven by an encephalomyocarditis virus (EMCV) internal ribosome entry site (IRES), in the second cistron. The hepatitis delta ribozyme (HDVR) was included after the HCV 3′ NTR followed by a unique SpeI restriction site for linearization. This replicon encodes three cell culture adaptive mutations, P1226S (NS3), D1437H (NS3), and S2210I (NS5A), as described previously (Saeed et al 2012 Antimicrob. Agents Chemother. 54: 1878-1887). The GT4a-ED43 replicon plasmid pSGRlucneo-GT4a-ED43-HDVR-(KG) was synthesized by Genscript. […]
Stable HCV replicon cell lines were grown in complete media (Dulbecco's modified Eagle medium [DMEM], 2 mM L-glutamine, 0.1 mM essential amino acids, 1 mM sodium pyruvate, 10% fetal bovine serum) with the addition 500 μg/ml […] (G418). […] For stable and transient replicon assays, luciferase activity of compound-treated cells was measured relative to DMSO-treated cells after 72 h incubation using RENILLA-GLO™ Luciferase Assay (Promega). […]

Row | SMILES | EC50 [1] [pM] | EC50 [2] [pM] | EC50 [3] [pM]
1 | COC(=O)N[C@H](C(=O)N1C[C@]2(CCCOC2)C[C@H]1c1ncc(-c2ccc(-c3ccc4c(ccc5nc([C@@H]6C[C@@H]7CCC[C@@H]7N6C(=O)[C@@H](NC(=O)OC)C(C)C)[nH]c54)c3)cc2)[nH]1)C(C)C [Compound 16] | 6 | 10 | 11
2 | COC(=O)N[C@H](C(=O)N1CCC[C@H]1c1nc(-c2ccc(-c3ccc(-c4c[nH]c([C@@H]5CCCN5C(=O)[C@@H](NC(=O)OC)C(C)C)n4)cc3)cc2)c[nH]1)C(C)C [Daclatasvir, reference compound] | 800 | 1200 | 25
